Where a name gives a salt, the structure may show the parent alone.
Row | melting point | Compound
1 | 227 °C | CC(C)n1c(=O)c(C(=O)NCC2CCN(CC3(O)CCOCC3)CC2)cc2c(Cl)cccc21
2 | 222 °C | Cc1cccc2c1cc(C(=O)NCC1CCN(CC3(O)CCOCC3)CC1)c(=O)n2C(C)C
3 | 275.7 °C | CC(C)n1c(=O)c(C(=O)NCC2CCN(CC3(O)CCOCC3)CC2)cc2c(F)cccc21 (as salt: hydrochloride)
4 | 240.7 °C | Cc1cccc2c1cc(C(=O)NCC1CCN(CC3CCNCC3)CC1)c(=O)n2C(C)C (as salt: hydrochloride)
